Results from US6073962A (priority 1994, dated 2000).

System: mouse
Conditions: in vivo, po

Structure (SMILES) | Death rate of 30 mg adm. | Death rate of 300 mg adm. | Death rate of 2000 mg adm. | LD50 level
NN.NN.O=[N+]([O-])[O-].O=[N+]([O-])[O-].[Zn+2] [Ex. 1, Zn.2(N2 H4).2(NO3)] | 0/10 | 0/10 | 10/10 | > 300 mg/kg
NNC(=O)NN.NNC(=O)NN.NNC(=O)NN.O=[N+]([O-])[O-].O=[N+]([O-])[O-].[Zn+2] [Ex. 25, Zn.3(CDH).2(NO3)] | 0/10 | 3/10 | 10/10 | > 300
